Source: the NIST ThermoML archive (doi:10.1021/je800468h)
± gives the expanded uncertainty stated by the source.

How the values were obtained:
[1] = xn = mol fraction of the nth substance listed; settings: 298.15 K, 101 kPa, Liquid; for electrical conductivity: Alternating current cell with electrodes; for mass density: Vibrating tube method
[2] = 298.15 K, 101 kPa, Liquid

CCCCn1cc[n+](C)c1.F[P-](F)(F)(F)(F)F [1-butyl-3-methylimidazolium hexafluorophosphate] + CC#N
[1]
Settings	electrical conductivity [S/m]	mass density [kg/m3]
x1 = 0.007571	1.49 ± 0.015	795.63 ± 0.15
x1 = 0.01576	2.54 ± 0.03	815.17 ± 0.15
x1 = 0.02489	3.39 ± 0.03	835.56 ± 0.15
x1 = 0.03448	4.05 ± 0.04	855.89 ± 0.16
x1 = 0.05838	5 ± 0.05	901.77 ± 0.17
x1 = 0.08779	5.39 ± 0.05	950.71 ± 0.2
x1 = 0.1261	5.27 ± 0.05	1004.47 ± 0.23
x1 = 0.1772	4.68 ± 0.05	1062.7 ± 0.32
x1 = 0.2521	3.63 ± 0.04	1128.61 ± 0.57
x1 = 0.3649	2.3 ± 0.02	1199.71 ± 1.2
x1 = 0.5591	0.995 ± 0.01	1278.14 ± 2.9
x1 = 0.7291	0.469 ± 0.005	1321.97 ± 5.1
x1 = 0.8729	0.253 ± 0.003	1349.76 ± 7.6
x1 = 1	0.147 ± 0.0015	1368.32 ± 10

ClCCl [dichloromethane] + CCCCn1cc[n+](C)c1.F[B-](F)(F)F
[1]
Settings	electrical conductivity [S/m]	mass density [kg/m3]
x2 = 0.00755	0.0602 ± 0.0006	1316.6 ± 0.18
x2 = 0.01921	0.2 ± 0.002	1314.92 ± 0.19
x2 = 0.02714	0.31 ± 0.003	1313.4 ± 0.19
x2 = 0.03878	0.436 ± 0.004	1311.8 ± 0.19
x2 = 0.07987	0.98 ± 0.01	1304.97 ± 0.22
x2 = 0.1395	1.427 ± 0.014	1294.06 ± 0.32
x2 = 0.194	1.55 ± 0.016	1284.29 ± 0.46
x2 = 0.2674	1.607 ± 0.016	1271.96 ± 0.72
x2 = 0.3355	1.53 ± 0.015	1261.43 ± 1
x2 = 0.4787	1.209 ± 0.012	1242.95 ± 1.9
x2 = 0.6019	0.93 ± 0.009	1230.33 ± 3
x2 = 0.773	0.62 ± 0.006	1216.18 ± 4.8
x2 = 0.8496	0.511 ± 0.005	1211.19 ± 5.7
x2 = 0.9107	0.441 ± 0.004	1207.46 ± 6.5

CC1COC(=O)O1 (stereo not given) [4-methyl-1,3-dioxolan-2-one] + CCCCn1cc[n+](C)c1.F[B-](F)(F)F
[1]
Settings	electrical conductivity [S/m]	mass density [kg/m3]
x2 = 0.02318	0.537 ± 0.005	1201.32 ± 0.16
x2 = 0.04836	0.873 ± 0.009	1202.51 ± 0.17
x2 = 0.1028	1.23 ± 0.012	1204.3 ± 0.22
x2 = 0.1601	1.346 ± 0.013	1205.43 ± 0.32
x2 = 0.2277	1.332 ± 0.013	1206.17 ± 0.52
x2 = 0.3056	1.229 ± 0.012	1206.51 ± 0.83
x2 = 0.407	1.05 ± 0.011	1206.44 ± 1.4
x2 = 0.5126	0.875 ± 0.009	1206.03 ± 2.1
x2 = 0.6192	0.715 ± 0.007	1205.48 ± 3
x2 = 0.7173	0.593 ± 0.006	1204.39 ± 4
x2 = 0.8497	0.463 ± 0.005	1203.39 ± 5.7

CCCCn1cc[n+](C)c1.N#CN=C=[N-] [1-butyl-3-methylimidazolium dicyanamide]
[2]
Settings	electrical conductivity [S/m]	mass density [kg/m3]
Alternating current cell with electrodes	1.139 ± 0.011	–
Vibrating tube method	–	1059.12 ± 6.1
